# Tests used:
# Format in all cases: physicochemical
# [1] = Acid generation rate (photodegradation rate by HPLC after 365 nm UV irradiation); conditions: 365 nm UV 100 mW/cm^2, 1.5×10^−4 mol/L in acetonitrile/water=9/1
# Method: For each of the sulfonic acid derivative compound of Compound No. 4 and Comparative Compound 1, a 1.5×10^−4 mol/L acetonitrile/water mixed solution (volume ratio: acetonitrile/water=9/1) was prepared, and exactly 5.0 mL of the mixed solution was placed in a Petri dish having an inner diameter of 42 mm. Using a UV lamp and a cut filter transmitting only light having a wavelength of about 365 nm, which are manufactured by Hoya Candeo Optronics Corporation, the mixed solution was irradiated with UV having an intensity of 100 mW/cm^2. The irradiation was performed for 0.5 seconds, 1 second and 3 seconds for each solution. After this exposure, the photodegradation rate (%) was determined by HPLC as the acid generation rate.
# [2] = UV absorption spectrum in acetonitrile; conditions: for Maximum absorption wavelength (nm): absorption in a range of 300 nm to 400 nm; for Molar extinction coefficient ϵ (at maximum absorption wavelength): at λmax in 300 nm to 400 nm
# Method: (§1) The sulfonic acid derivative compound of Compound No. 4 and Comparative Compound 1 represented by the formula below were each dissolved in acetonitrile, and their absorption spectra were measured using a solar photometer U-3010 to determine the values of λmax and α (molar extinction coefficient) for absorption in a range of 300 nm to 400 nm as well as the value of E at 365 nm. In addition, their solubility to propylene glycol monomethyl ether acetate at 25° C. was evaluated. As for the solubility, the concentration of each compound was increased by 1%-by-mass increments, and the concentration at which no compound was left undissolved was determined to indicate the solubility in terms of this concentration.
# [3] = Solubility to propylene glycol monomethyl ether acetate; conditions: propylene glycol monomethyl ether acetate at 25° C., 1%-by-mass increments
# Method: as §1
# [4] = Transmittance at 365 nm; conditions: in acetonitrile
# Method: The sulfonic acid derivative compound of Compound No. 4 and Comparative Compound 2 represented by the formula below were each dissolved in acetonitrile, and their absorption spectra were measured using a solar photometer U-3010 to determine the transmittance at 365 nm.
Compound,Photodegradation rate (%) ([1]; 0.5 seconds),Photodegradation rate (%) ([1]; 1 second),Photodegradation rate (%) ([1]; 3 seconds),"Molar extinction coefficient, ϵ, at 365 nm [2]",Maximum absorption wavelength (nm) [2],Molar extinction coefficient ϵ (at maximum absorption wavelength) [2],Solubility (% by mass) [3],Transmittance at 365 nm (%) [4]
O=C1c2cccc3cccc(c23)C(=O)N1OS(=O)(=O)C(F)(F)F [Comparative Compound 1],21.4%,36.9%,68.4%,0.7 × 10^3,336.0 nm,1.42 × 10^4,1.9 % by mass,–
CCCCc1ccc2c3c(cccc13)C(=O)N(OS(=O)(=O)C(F)(F)F)C2=O [Comparative Compound 2],–,–,–,–,–,–,–,1.1%
CCCCc1cc2c3c(cccc3c1)C(=O)N(OS(=O)(=O)C(F)(F)F)C2=O [Compound No. 4],62.0%,86.7%,100%,5.40 × 10^3,339.5 nm,1.31 × 10^4,20 % by mass,34.1%

# From patent US20180079724A1, “SULFONIC ACID DERIVATIVE COMPOUND, PHOTOACID GENERATOR, RESIST COMPOSITION, CATIONIC POLYMERIZATION INITIATOR, AND CATIONICALLY POLYMERIZABLE COMPOSITION” (ADEKA CORPORATION, priority 2015, published 2018)
